{"source": "patent US10172816B2", "about": "“Method of treating chronic obstructive pulmonary disease (CPD) with verproside” (YUNGJIN PHARMACEUTICAL CO., LTD, priority 2013, dated 2019)", "key": {"[1]": {"target": "ADBR2 (beta-2 adrenergic receptor) GPCR (Homo sapiens, UniProt P07550)", "sequence (P07550 whole entry)": "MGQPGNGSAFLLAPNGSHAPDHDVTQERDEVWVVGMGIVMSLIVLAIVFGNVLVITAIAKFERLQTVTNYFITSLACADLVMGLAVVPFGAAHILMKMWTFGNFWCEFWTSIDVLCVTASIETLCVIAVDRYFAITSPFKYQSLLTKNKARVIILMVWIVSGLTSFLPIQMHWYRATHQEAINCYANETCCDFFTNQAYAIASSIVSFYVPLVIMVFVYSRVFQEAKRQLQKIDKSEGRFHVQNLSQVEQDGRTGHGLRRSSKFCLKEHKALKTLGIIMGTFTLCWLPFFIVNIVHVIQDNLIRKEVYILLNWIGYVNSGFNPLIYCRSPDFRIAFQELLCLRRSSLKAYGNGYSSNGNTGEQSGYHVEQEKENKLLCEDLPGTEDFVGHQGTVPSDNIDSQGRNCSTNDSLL", "experiment": "ADBR2 GPCR-targeting cell-based assay (spot formation)", "conditions": "20 micromole; U2OS cells stably expressing ADBR2 GPCR"}, "[2]": {"test_system": "inflammation in lung tissue", "experiment": "COPD rat model: histopathological examination of lung tissue", "format": "in vivo, Sprague-Dawley rat", "conditions": "p.o.", "procedure": "The exposure of cigarette smoke was performed by using a cigarette smoke generator (CH Technology Corp. USA). In a detail, 1 hour after the orally administration of test samples using by Head/nose-only exposure unit (TSE System, German) according to nose-only method, the cigarette smoke was exposed by inhalation for 3 days every hour. 8 puffs (volume 35 ml, duration 2 sec, interval 1 time/min) per one piece of standard cigarette was performed in the experiment. The tested groups were divided into five groups, i.e., (i) normal group with no treatment (normal control, NC), (ii) control group exposed with cigarette smoke (COPD), (iii) test sample group treated with Daxas (1 mg/kg, p.o) 1 hr prior to cigarette smoke exposure (DA), (iv) test sample group treated with ATC2 (30 mg/ml, p.o) 1 hr prior to cigarette smoke exposure (YPL), and (v) test sample group treated with Verproside (30 mg/ml, p.o) 1 hr prior to cigarette smoke exposure (Ver).\nDelivered lung was promptly fixed with 10% formaldehyde solution (F0161, SAMCHUN, Korea), and cut into slices. The slices were washed with running water for 8 hrs, embedded with epoxy, cut into slices with microtome (CUT4050, MicroTec, Germany) and stained with Hematoxylin (MHS-16, Sigma-Aldrich, USA) & Eosin (HT110-1-32, Sigma-Aldrich, USA). […]"}, "MIP-2/CXCL-2": {"test_system": "MIP-2/CXCL-2", "experiment": "COPD mouse model (LPS+CS): MIP-2/CXCL-2 in BALF by ELISA", "format": "in vivo, BALB/c mice", "conditions": "15 mg/kg, p.o."}, "MMP-9": {"test_system": "MMP-9", "experiment": "COPD rat model: MMP-9 activity in lung tissue (gelatin zymography)", "format": "in vivo, Sprague-Dawley rat", "conditions": "ATC2 and Verproside 30 mg/kg, p.o.; level similar to Daxas group", "description": "The exposure of cigarette smoke was performed by using a cigarette smoke generator (CH Technology Corp. USA). In a detail, 1 hour after the orally administration of test samples using by Head/nose-only exposure unit (TSE System, German) according to nose-only method, the cigarette smoke was exposed by inhalation for 3 days every hour. 8 puffs (volume 35 ml, duration 2 sec, interval 1 time/min) per one piece of standard cigarette was performed in the experiment. […]\nThe lung tissue of rat was homogenized with Tissue lysis buffer (C3228, Sigma-Aldrich, USA) treated with a protease inhibitor (11836153001, Roche, Germany) and the homogenized lung tissue was centrifuged at 12000 rpm for 10 mins to isolate the supernatant. The protein assay reagent (500-0006, Bio-Rad, USA) was used to quantification. […] The density of MMP-9 band was determined using by Chemi-doc (170-8070, Bio-Rad, USA) to determine the activity of MMP-9."}, "[3]": {"test_system": "neutrophils and total immunocytes in BALF", "experiment": "COPD rat model (cigarette smoke): immunocytes in BALF", "format": "in vivo, Sprague-Dawley rat", "conditions": "ATC2 and Verproside 30 mg/kg", "procedure": "3 kinds of test samples, i.e., ATC2 (30 mg/kg), Verproside (30 mg/kg), Daxas (main ingredient: Roflumilast, 1 mg/kg) were dissolved in PBS and uses as test samples.\nATC2, Verproside, Daxas were orally administrated to the mice at the dose of 4 mg/kg, 1 hour before prior the intratracheal instillation (i.t.).\nThe exposure of cigarette smoke was performed by using a cigarette smoke generator (CH Technology Corp. USA). In a detail, 1 hour after the orally administration of test samples using by Head/nose-only exposure unit (TSE System, German) according to nose-only method, the cigarette smoke was exposed by inhalation for 3 days every hour. 8 puffs (volume 35 ml, duration 2 sec, interval 1 time/min) per one piece of standard cigarette was performed in the experiment. The tested groups were divided into five groups, i.e., (i) normal group with no treatment (normal control, NC), (ii) control group exposed with cigarette smoke (COPD), (iii) test sample group treated with Daxas (1 mg/kg, p.o) 1 hr prior to cigarette smoke exposure (DA), (iv) test sample group treated with ATC2 (30 mg/ml, p.o) 1 hr prior to cigarette smoke exposure (YPL), and (v) test sample group treated with Verproside (30 mg/ml, p.o) 1 hr prior to cigarette smoke exposure (Ver). After the end of experiment, the blood, BALF, and pneumonocyte of each rat were isolated and collected to test.\nAfter finishing the experiment, rats were anesthetized with Zoletil50 (3VX9, Virbac, France, p.o) and the blood was delivered through caudal veins. In order to isolate BALF from lung, the bronchus of right lung was ligated with suture and then performed to tracheotomy. IV-use catheter (16 GA, 3S-Cath, Dukwoo, Korea) was put into the bronchus, and both of bronchus and catheter (16 GA, 3S-Cath, Dukwoo, Korea) were fixed with suture. […] The light lung ligated with suture was isolated, fixed with 10% neutral formalin solution, and the remaining lung tissue was reserved in refrigerator at −70° C. […]"}, "Mucin 5A/C": {"test_system": "Mucin 5A/C", "experiment": "Acrolein-induced Mucin 5A/C expression in A549 cells (RT-PCR)", "format": "cell-based, human", "conditions": "pre-treated 1 hour, then 30 nM acrolein, dose dependent", "description": "The diluted A549 cell line (ATCC, CCL-185) with DMEM medium supplemented with 5% phenol red and FBS (Fetal Bovine Serum) was seeded in 6 well plates (4×10^5 cells/well) to adhere thereto for a night, and 20 and 40 microgram/ml of ATC2 extract were treated with A549 cell line for 1 hours. 30 nM acrolein was treated therewith to induce Mucin 5A/C expression. The medium was removed the cell, washed with PBS solution and homogenized with Trizol (Invitrogen, CA, USA) for the isolation of ribonucleic acids from the cells for 5 mins. the cells were collected, transferred to centrifugal separator, completely mixed with chloroform for 15 seconds, left alone for 3 mins and centrifuged for 15 mins at the speed of 14,000 rpm. The supernatant containing ribonucleic acid was transferred to new tube and mixed with isopropylalcohol for 10 mins. The solution was centrifuged to discard the supernatant and 75% ethanol was added to the precipitate. The precipitate was centrifuged for 5 mins at the speed of 10,000 rpm and the supernatant was discarded. The precipitated ribonucleic acid was dried at room temperature for 20 mins. […] After the quantification of ribonucleic acid, the complementary DNA was synthesized using by 1 microgram of RNA and RT-kit (Omniscript RT kit, Qiagen, USA) and the synthetic cDNA was used as a template. […]"}}, "data": [{"smiles": "O=C(O[C@H]1[C@@H]2C=CO[C@@H](O[C@@H]3O[C@H](CO)[C@@H](O)[C@H](O)[C@H]3O)[C@@H]2[C@@]2(CO)O[C@@H]12)c1ccc(O)c(O)c1", "note": "[verproside, 6-O-(3,4-dihydroxybenzoyl) catalpol]", "values": [{"measurement": "spot formation", "setting": "[1]", "value": "did not show spot formation"}, {"measurement": "inhibitory effect on inflammation in lung tissue relative to Daxas group", "setting": "[2]; ATC2 and Verproside 30 mg/kg versus Daxas 1 mg/kg", "value": "more potent"}, {"measurement": "inflammation (infiltration of inflammatory cells) in lung tissue compared with COPD induced group", "setting": "[2]; ATC2 and Verproside 30 mg/kg, Daxas 1 mg/kg", "value": "significant decreased"}, {"measurement": "reduction of chemokines MIP-2/CXCL-2 in BALF compared with control group", "setting": "MIP-2/CXCL-2", "value": "more than 63.0%"}, {"measurement": "activity of MMP-9 in lung tissue", "setting": "MMP-9", "value": "remarkably reduced activity"}, {"measurement": "ratio of the number of neutrophils to that of immunocytes (counting 300 immunocytes) compared with COPD induced group", "setting": "[3]; Daxas 1 mg/kg, p.o.", "value": "remarkably reduced ratio"}, {"measurement": "level of neutrophils in BALF compared with COPD induced group", "setting": "[3]; Daxas 1 mg/kg, p.o. 1 hr prior to cigarette smoke exposure", "value": "remarkably reduced level"}, {"measurement": "level of total immunocytes in BALF compared with COPD induced group", "setting": "[3]; p.o. 1 hr prior to cigarette smoke exposure", "value": "remarkably reduced level"}, {"measurement": "expression of Mucin 5A/C (mRNA, RT-PCR)", "setting": "Mucin 5A/C", "value": "inhibited"}]}]}
